The record followed here is patent publication US9796741B2 (Achillion Pharmaceuticals, Inc., priority 2014, dated 2017).

In this test the target is Human factor D (Homo sapiens (Human), UniProt P00746). Kind of test: Human Factor D Assay. In kind it is biochemical. A digest of the protocol:
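Serum-purified factor D (80 nM final) preincubated 5 min at room temperature with compound in 50 mM Tris, 1M NaCl, pH 7.5. Z-L-Lys-SBzl and DTNB added at 100 μM each; OD405 followed kinetically over 30 min. IC50 by non-linear regression of % inhibition.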

The mark [1] stands for this setting: human factor D 80 nM, substrate Z-L-Lys-SBzl, DTNB.

By IC50 is commonly meant the concentration needed to halve the response being measured. A high value points to a need for much substance.

Read-outs that look alike come from different tables or passages of the source. A value given as a limit tells only on which side of the number the result lay.

Sequence of Human factor D (P00746 26-253): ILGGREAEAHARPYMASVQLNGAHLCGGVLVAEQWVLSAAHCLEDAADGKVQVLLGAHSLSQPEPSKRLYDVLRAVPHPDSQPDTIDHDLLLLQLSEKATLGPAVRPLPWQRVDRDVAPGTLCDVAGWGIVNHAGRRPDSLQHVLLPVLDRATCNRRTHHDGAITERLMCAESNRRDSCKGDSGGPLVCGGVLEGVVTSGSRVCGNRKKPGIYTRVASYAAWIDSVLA

The compound `NC(=O)c1nn(CC(=O)N2C[C@H](F)C[C@H]2C(=O)Nc2ccc(F)c(-c3nnc4n3CCCCC4)c2)c2ccc(-c3ccnnc3)cc12` [Compound 91, 1-(2-((2S,4R)-4-fluoro-2-(4-fluoro-3-(6,7,8,9-tetrahydro-5H-[1,2,4]triazolo[4,3-a]azepin-3-yl)phenylcarbamoyl)pyrrolidin-1-yl)-2-oxoethyl)-5-(pyridazin-4-yl)-1H-indazole-3-carboxamide] had an IC50 under setting [1] of more than 10 µM. `NC(=O)c1nn(CC(=O)N2C[C@H](F)C[C@H]2C(=O)Nc2cccc(Cl)c2C(F)(F)F)c2ccc(-c3ccnnc3)cc12` [Compound 93, 1-(2-((2S,4R)-2-(3-chloro-2-(trifluoromethyl)phenylcarbamoyl)-4-fluoropyrrolidin-1-yl)-2-oxoethyl)-5-(pyridazin-4-yl)-1H-indazole-3-carboxamide] displayed an IC50 under setting [1] of more than 10 µM.

With `NC(=O)c1nn(CC(=O)N2C[C@H](F)C[C@H]2C(=O)Nc2c[nH]nc2-c2ccc(Cl)cc2Cl)c2ccc(-c3ccnnc3)cc12` [Compound 94, 1-(2-((2S,4R)-2-(3-(2,4-dichlorophenyl)-1H-pyrazol-4-ylcarbamoyl)-4-fluoropyrrolidin-1-yl)-2-oxoethyl)-5-(pyridazin-4-yl)-1H-indazole-3-carboxamide], under setting [1], the IC50 is more than 10 µM.

`CC(=O)c1cn(CC(=O)N2C[C@H](F)C[C@H]2C(=O)Nc2cccc(Cl)c2-n2cncn2)c2ccc(-c3ccnnc3)cc12` [Compound 95, (2S,4R)-1-(2-(3-acetyl-5-(pyridazin-4-yl)-1H-indol-1-yl)acetyl)-N-(3-chloro-2-(1H-1,2,4-triazol-1-yl)phenyl)-4-fluoropyrrolidine-2-carboxamide] returned an IC50 under setting [1] of more than 10 µM.

`NC(=O)c1nn(CC(=O)N2C[C@H](F)C[C@H]2C(=O)Nc2cccc(Cl)c2-n2cncn2)c2ccc(-c3ccnnc3)cc12` [Compound 96, 1-(2-((2S,4R)-2-(3-chloro-2-(1H-1,2,4-triazol-1-yl)phenylcarbamoyl)-4-fluoropyrrolidin-1-yl)-2-oxoethyl)-5-(pyridazin-4-yl)-1H-indazole-3-carboxamide]: the IC50 under setting [1] is more than 10 µM. The same measure, in the same setting: the same measure for `CC(=O)c1cn(CC(=O)N2C[C@H](F)C[C@H]2C(=O)Nc2cc(C)nc3nc(C(F)(F)F)nn23)c2ccc(-c3ccnnc3)cc12` [Compound 97, (2S,4R)-1-(2-(3-acetyl-5-(pyridazin-4-yl)-1H-indol-1-yl)acetyl)-4-fluoro-N-(5-methyl-2-(trifluoromethyl)-[1,2,4]triazolo[1,5-a]pyrimidin-7-yl)pyrrolidine-2-carboxamide]: more than 10 µM; for `Cn1cnnc1-c1ccccc1NC(=O)[C@@H]1C[C@@H](F)CN1C(=O)Cn1nc(C(N)=O)c2cc(-c3ccnnc3)ccc21` [Compound 98, 1-(2-((2S,4R)-4-fluoro-2-(2-(4-methyl-4H-1,2,4-triazol-3-yl)phenylcarbamoyl)pyrrolidin-1-yl)-2-oxoethyl)-5-(pyridazin-4-yl)-1H-indazole-3-carboxamide]: more than 10 µM.

Compound `CC(=O)c1cn(CC(=O)N2C[C@H](F)C[C@H]2C(=O)Nc2nc(-c3ccccc3Cl)ns2)c2ccc(-c3ccnnc3)cc12` [Compound 99, (2S,4R)-1-(2-(3-acetyl-5-(pyridazin-4-yl)-1H-indol-1-yl)acetyl)-N-(3-(2-chlorophenyl)-1,2,4-thiadiazol-5-yl)-4-fluoropyrrolidine-2-carboxamide] gave an IC50 under setting [1] of less than 1 µM. The same measure, in the same setting: the same measure for `CC(=O)c1cn(CC(=O)N2C[C@H](F)C[C@H]2C(=O)Nc2cccc(Br)n2)c2ccc(-c3ccccc3Cl)cc12` [Compound 100, (2S,4R)-1-(2-(3-acetyl-5-(2-chlorophenyl)-1H-indol-1-yl)acetyl)-N-(6-bromopyridin-2-yl)-4-fluoropyrrolidine-2-carboxamide]: less than 1 µM. `Cc1ncc(-c2ccc3c(c2)c(C(N)=O)nn3CC(=O)N2C[C@H](F)C[C@H]2C(=O)Nc2cccc(Br)n2)cn1` [Compound 101, 1-(2-((2S,4R)-2-(6-bromopyridin-2-ylcarbamoyl)-4-fluoropyrrolidin-1-yl)-2-oxoethyl)-5-(2-methylpyrimidin-5-yl)-1H-indazole-3-carboxamide]: the IC50 under setting [1] is less than 1 µM.

`CC(=O)c1cn(CC(=O)N2C[C@H](F)C[C@H]2C(=O)Nc2cccc(-c3ccccc3Cl)c2F)c2ccc(-c3cnc(C)nc3)cc12` [Compound 102, (2S,4R)-1-(2-(3-acetyl-5-(2-methylpyrimidin-5-yl)-1H-indol-1-yl)acetyl)-N-(2′-chloro-2-fluorobiphenyl-3-yl)-4-fluoropyrrolidine-2-carboxamide]: under setting [1], the IC50 was less than 1 µM.

Turning to `Cc1ncc(-c2ccc3c(c2)c(C(N)=O)nn3CC(=O)N2C[C@H](F)C[C@H]2C(=O)Nc2cccc(-c3ccccc3Cl)c2F)cn1` [Compound 103, 1-(2-((2S,4R)-2-(2′-chloro-2-fluorobiphenyl-3-ylcarbamoyl)-4-fluoropyrrolidin-1-yl)-2-oxoethyl)-5-(2-methylpyrimidin-5-yl)-1H-indazole-3-carboxamide], the IC50 under setting [1] was less than 1 µM. The same measure, in the same setting: the result for `NC(=O)c1nn(CC(=O)N2C[C@H](F)C[C@H]2C(=O)Nc2cccc3c2CN(c2ccccn2)C3)c2ccc(-c3ccnnc3)cc12` [Compound 104, 1-(2-((2S,4R)-4-fluoro-2-(2-(pyridin-2-yl)isoindolin-4-ylcarbamoyl)pyrrolidin-1-yl)-2-oxoethyl)-5-(pyridazin-4-yl)-1H-indazole-3-carboxamide] reads more than 10 µM; that for `CC(=O)c1cn(CC(=O)N2C[C@H](F)C[C@H]2C(=O)Nc2cccc3c2CN(c2ccccn2)C3)c2ccc(-c3ccnnc3)cc12` [Compound 105, (2S,4R)-1-(2-(3-acetyl-5-(pyridazin-4-yl)-1H-indol-1-yl)acetyl)-4-fluoro-N-(2-(pyridin-2-yl)isoindolin-4-yl)pyrrolidine-2-carboxamide], more than 10 µM; that for `CC(=O)c1cn(CC(=O)N2C[C@H](F)C[C@H]2C(=O)NC2CCCc3nc(-c4ccc(F)cc4)sc32)c2ccc(-c3ccnnc3)cc12` (stereo partly drawn) [Compound 106, (2S,4R)-1-(2-(3-acetyl-5-(pyridazin-4-yl)-1H-indol-1-yl)acetyl)-4-fluoro-N-(2-(4-fluorophenyl)-4,5,6,7-tetrahydrobenzo[d]thiazol-7-yl) pyrrolidine-2-carboxamide], more than 10 µM. With `NC(=O)c1nn(CC(=O)N2C[C@H](F)C[C@H]2C(=O)NC2CCCc3nc(-c4ccc(F)cc4)sc32)c2ccc(-c3ccnnc3)cc12` (stereo partly drawn) [Compound 107, 1-(2-((2S,4R)-4-fluoro-2-(2-(4-fluorophenyl)-4,5,6,7-tetrahydrobenzo[d]thiazol-7-ylcarbamoyl)pyrrolidin-1-yl)-2-oxoethyl)-5-(pyridazin-4-yl)-1H-indazole-3-carboxamide], under setting [1], the IC50 was more than 10 µM. On to `NC(=O)c1nn(CC(=O)N2C[C@H](F)C[C@H]2C(=O)Nc2ncc(Br)cn2)c2ccc(-c3ccnnc3)cc12` [Compound 109, 1-(2-((2S,4R)-2-(5-bromopyrimidin-2-ylcarbamoyl)-4-fluoropyrrolidin-1-yl)-2-oxoethyl)-5-(pyridazin-4-yl)-1H-indazole-3-carboxamide], for which the IC50 fell in the range of 1 to 10 µM.

`CC(=O)c1cn(CC(=O)N2C[C@H](F)C[C@H]2C(=O)Nc2ccc3ccccc3c2)c2ccc(-c3ccnnc3)cc12` [Compound 110, (2S,4R)-1-(2-(3-acetyl-5-(pyridazin-4-yl)-1H-indol-1-yl)acetyl)-4-fluoro-N-(naphthalen-2-yl)pyrrolidine-2-carboxamide] displayed an IC50 under setting [1] of more than 10 µM. The same measure, in the same setting: the result for `NC(=O)c1nn(CC(=O)N2C[C@H](F)C[C@H]2C(=O)Nc2noc3cc(C(F)(F)F)ccc23)c2ccc(-c3ccnnc3)cc12` [Compound 112, 1-(2-((2S,4R)-4-fluoro-2-(6-(trifluoromethyl)benzo[d]isoxazol-3-ylcarbamoyl)pyrrolidin-1-yl)-2-oxoethyl)-5-(pyridazin-4-yl)-1H-indazole-3-carboxamide] reads more than 10 µM; that for `Cc1cc(NC(=O)[C@@H]2C[C@@H](F)CN2C(=O)Cn2nc(C(N)=O)c3cc(-c4ccnnc4)ccc32)n2nc(C(F)(F)F)nc2n1` [Compound 113, 1-(2-((2S,4R)-4-fluoro-2-(5-methyl-2-(trifluoromethyl)-[1,2,4]triazolo[1,5-a]pyrimidin-7-ylcarbamoyl)pyrrolidin-1-yl)-2-oxoethyl)-5-(pyridazin-4-yl)-1H-indazole-3-carboxamide], more than 10 µM.

Under setting [1], `NC(=O)c1nn(CC(=O)N2C[C@H](F)C[C@H]2C(=O)Nc2nnc(-c3ccccc3Cl)s2)c2ccc(-c3ccnnc3)cc12` [Compound 115, 1-(2-((2S,4R)-2-(5-(2-chlorophenyl)-1,3,4-thiadiazol-2-ylcarbamoyl)-4-fluoropyrrolidin-1-yl)-2-oxoethyl)-5-(pyridazin-4-yl)-1H-indazole-3-carboxamide] displayed an IC50 of more than 10 µM. On the same count and under the same terms, the same measure for `CC(=O)c1cn(CC(=O)N2C[C@H](F)C[C@H]2C(=O)Nc2nnc(-c3ccc(Cl)c(Cl)c3)s2)c2ccc(-c3ccnnc3)cc12` [Compound 117, (2S,4R)-1-(2-(3-acetyl-5-(pyridazin-4-yl)-1H-indol-1-yl)acetyl)-N-(5-(3,4-dichlorophenyl)-1,3,4-thiadiazol-2-yl)-4-fluoropyrrolidine-2-carboxamide]: more than 10 µM. The compound `CC(=O)Nc1ncc(-c2ccc3c(c2)c(C(C)=O)cn3CC(=O)N2C[C@H](F)C[C@H]2C(=O)Nc2cccc(Br)n2)cn1` [Compound 118, (2S,4R)-1-(2-(5-(2-acetamidopyrimidin-5-yl)-3-acetyl-1H-indol-1-yl)acetyl)-N-(6-bromopyridin-2-yl)-4-fluoropyrrolidine-2-carboxamide] came in with an IC50 under setting [1] of less than 1 µM. Under setting [1], `CC(=O)c1cn(CC(=O)N2C[C@H](F)C[C@H]2C(=O)Nc2cccc(Br)n2)c2ccc(-c3cccc(Cl)c3)cc12` [Compound 119, (2S,4R)-1-(2-(3-acetyl-5-(3-chlorophenyl)-1H-indol-1-yl)acetyl)-N-(6-bromopyridin-2-yl)-4-fluoropyrrolidine-2-carboxamide] displayed an IC50 of less than 1 µM.
